Values of other authors, collected in patent US6514490B2, “Compositions containing an antifungal and a cationic agent” (Janssen Pharmaceutica N.V., priority 1997, dated 2003).

Conditions: prior art medicated shampoo, anti-dandruff treatment

SMILES | number of patients not responding to particular medicated shampoo
CC(=O)N1CCN(c2ccc(OCC3COC(Cn4ccnc4)(c4ccc(Cl)cc4Cl)O3)cc2)CC1 (centres unmarked) [ketoconazole] | up to 30%
S=[Se]=S [selenium sulfide] | up to 40%
